Measured values: patent publication US20240083857A1, “2-Methyl-Quinazolines” (Bayer Pharma Aktiengesellschaft, priority 2017, published 2024)
Like-named read-outs stand apart in the source and are kept apart here.

Assays:
[1] = molecular target: Epidermal Growth Factor Receptor (EGFR) (Homo sapiens (Human), UniProt P00533); experiment: EGFR kinase assay (TR-FRET); type: biochemical; details: read-out: EGFR-assay IC50
From the text: EGFR inhibitory activity of compounds of the present invention was quantified employing the TR-FRET based EGFR assay as described in the following paragraphs.
Epidermal Growth Factor Receptor (EGFR) affinity purified from human carcinoma A431 cells (Sigma-Aldrich, #E3641) was used as kinase. As substrate for the kinase reaction the biotinylated peptide biotin-Ahx-[…] (SEQ ID NO 5) (C-terminus in amid form) was used which can be purchased e.g. form the company Biosyntan GmbH (Berlin-Buch, Germany).
For the assay 50 nL of a 100 fold concentrated solution of the test compound in DMSO was pipetted into a black low volume 384 well microtiter plate (Greiner Bio-One, Frickenhausen, Germany), 2 μL of a solution of EGFR in aqueous assay buffer [50 mM Hepes/HCl pH 7.0, 1 mM MgCl2, 5 mM MnCl2, 0.5 mM activated sodium ortho-vanadate, 0.005% (v/v) Tween-20]were added and the mixture was incubated for 15 min at 22° C. to allow pre-binding of the test compounds to the enzyme before the start of the kinase reaction. […] The concentration of EGFR was adjusted depending of the activity of the enzyme lot and was chosen appropriate to have the assay in the linear range, typical concentration were about 3 U/ml. The reaction was stopped by the addition of 5 μl of a solution of HTRF detection reagents (0.1 μM streptavidine-XL665 [Cis Biointernational] and 1 nM PT66-Tb-Cryptate, an terbium-cryptate labelled anti-phospho-tyrosine antibody from Cis Biointernational [instead of the PT66-Tb-cryptate PT66-Eu-Chelate from Perkin Elmer can also be used]) in an aqueous EDTA-solution (80 mM EDTA, 0.2% (w/v) bovine serum albumin in 50 mM HEPES pH 7.5).
The resulting mixture was incubated 1 h at 22° C. to allow the binding of the biotinylated phosphorylated peptide to the streptavidine-XL665 and the PT66-Eu-Chelate. Subsequently the amount of phosphorylated substrate was evaluated by measurement of the resonance energy transfer from the PT66-Tb-Cryptate to the streptavidine-XL665. Therefore, the fluorescence emissions at 620 nm and 665 nm after excitation at 337 nm were measured in a HTRF reader, e.g. a Pherastar (BMG Labtechnologies, Offenburg, Germany) or a Viewlux (Perkin-Elmer). The ratio of the emissions at 665 nm and at […] was taken as the measure for the amount of phosphorylated substrate.

[2] = molecular target: human SOS1 (nucleotide exchange of K-Ras^G12C) (Homo sapiens, UniProt Q07889); experiment: Biochemical assay 2: K-Ras^G12C activation assay by hSOS1 at high GTP concentration (HTRF); details: E-notation values; unit inferred; 50 μM GTP; read-out: Assay 2 (KRAS-Activation, high GTP) IC50
[3] = E-notation values, unit inferred

Epidermal Growth Factor Receptor (EGFR), sequence (P00533 25-1210): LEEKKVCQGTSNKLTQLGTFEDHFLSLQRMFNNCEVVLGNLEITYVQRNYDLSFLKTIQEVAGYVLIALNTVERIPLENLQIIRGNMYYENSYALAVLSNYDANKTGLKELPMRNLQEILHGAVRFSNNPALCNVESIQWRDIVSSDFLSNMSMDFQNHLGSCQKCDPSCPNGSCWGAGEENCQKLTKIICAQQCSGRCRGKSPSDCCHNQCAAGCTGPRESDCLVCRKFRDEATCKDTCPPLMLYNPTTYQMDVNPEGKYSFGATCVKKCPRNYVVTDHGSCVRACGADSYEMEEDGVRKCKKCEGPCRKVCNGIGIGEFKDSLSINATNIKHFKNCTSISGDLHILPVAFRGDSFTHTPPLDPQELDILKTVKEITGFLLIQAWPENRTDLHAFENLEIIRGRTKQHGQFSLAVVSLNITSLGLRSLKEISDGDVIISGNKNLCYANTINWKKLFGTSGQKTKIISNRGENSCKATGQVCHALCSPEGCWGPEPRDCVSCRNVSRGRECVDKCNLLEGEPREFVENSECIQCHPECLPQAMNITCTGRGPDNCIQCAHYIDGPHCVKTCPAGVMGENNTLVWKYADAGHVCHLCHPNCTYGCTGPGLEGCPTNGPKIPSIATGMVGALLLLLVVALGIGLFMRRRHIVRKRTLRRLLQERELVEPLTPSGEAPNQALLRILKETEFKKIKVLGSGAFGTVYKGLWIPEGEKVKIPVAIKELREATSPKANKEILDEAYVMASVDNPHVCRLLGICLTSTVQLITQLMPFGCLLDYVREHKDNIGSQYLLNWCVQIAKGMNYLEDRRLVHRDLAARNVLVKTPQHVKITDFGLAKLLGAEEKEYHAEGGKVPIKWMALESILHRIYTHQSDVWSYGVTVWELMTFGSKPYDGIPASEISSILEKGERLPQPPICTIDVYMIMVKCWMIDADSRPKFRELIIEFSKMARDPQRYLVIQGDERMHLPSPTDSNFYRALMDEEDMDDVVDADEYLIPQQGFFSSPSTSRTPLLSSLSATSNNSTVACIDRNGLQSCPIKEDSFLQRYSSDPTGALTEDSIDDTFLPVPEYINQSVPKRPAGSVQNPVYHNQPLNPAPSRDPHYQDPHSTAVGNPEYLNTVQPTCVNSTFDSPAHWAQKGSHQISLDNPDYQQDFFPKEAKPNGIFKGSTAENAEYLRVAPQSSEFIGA

| Compound | IC50 ([1]; in μM) [µM] | IC50 [2] [µM] | IC50 [1, 3] [µM] |
| --- | --- | --- | --- |
| COCC(=O)NCc1cc(F)ccc1-c1ccc(C(C)Nc2nc(C)nc3cc(OC)c(OC)cc23)s1 (centres unmarked) [Example 383, N-[2-(5-{1-[(6,7-dimethoxy-2-methylquinazolin-4-yl)amino]ethyl}thiophen-2-yl)-5-fluorobenzyl]-2-methoxyacetamide] | > 20 | 3.62 |  |
| COc1cc2nc(C)nc(NC(C)c3ccc(-c4cc(Cl)ccc4CNC(=O)OC(C)(C)C)s3)c2cc1OC (centres unmarked) [Example 387, tert-butyl [4-chloro-2-(5-{1-[(6,7-dimethoxy-2-methylquinazolin-4-yl)amino]ethyl}-thiophen-2-yl)benzyl]carbamate] |  | 1.66 | > 20 |
| COc1cc2nc(C)nc(N[C@H](C)c3cccc(-c4ccnc(O)c4)c3)c2cc1OC [Example 388, 4-(3-{(1R)-1-[(6,7-dimethoxy-2-methylquinazolin-4-yl)amino]ethyl}phenyl)pyridin-2-ol] |  | 0.801 | > 20 |
| COc1cc2nc(C)nc(NC(C)c3cccc(OCc4ccccc4)c3)c2cc1OC (centres unmarked) [Example 389, N-{1-[3-(benzyloxy)phenyl]ethyl}-6,7-dimethoxy-2-methylquinazolin-4-amine] |  | 14.9 | > 20 |
| Cc1nc(N[C@H](C)c2cccc(Cl)c2)c2cc(C(C)(C)O)ccc2n1 [Example 392, 2-(4-{[(1R)-1-(3-chlorophenyl)ethyl]amino}-2-methylquinazolin-6-yl)propan-2-ol] |  | 1.19 | > 20 |
| COc1cc2nc(C)nc(N[C@H](C)c3cccc(-c4ccccc4CC(N)=O)c3)c2cc1OC [Example 393, 2-(3′-{(1R)-1-[(6,7-dimethoxy-2-methylquinazolin-4-yl)amno]ethyl}biphenyl-2-yl)acetamide] |  | 0.975 | > 20 |
| COc1cc2nc(C)nc(NC(C)c3ccc(-c4ccccc4CC(N)=O)s3)c2cc1OC (centres unmarked) [Example 394, 2-[2-(5-{1-[(6,7-dimethoxy-2-methylquinazolin-4-yl)amino]ethyl}thiophen-2-yl)phenyl]acetamide] |  | 1.62 | > 20 |
| COc1cc2nc(C)nc(NC(C)c3ccc(-c4ccc(O)nc4)s3)c2cc1OC (centres unmarked) [Example 395, 5-(5-{1-[(6,7-dimethoxy-2-methylquinazolin-4-yl)amino]ethyl}thiophen-2-yl)pyridin-2-ol] |  | 1.06 | 7.07 |
| COc1cc(C)c2nc(C)nc(N[C@H](C)c3cccc(Cl)c3)c2c1 [Example 396, N-[(1R)-1-(3-chlorophenyl)ethyl]-6-methoxy-2,8-dimethylquinazolin-4-amine] |  | 1.15 | > 20 |
| COc1cc2nc(C)nc(NC(C)c3ccc(-c4cccc(Cl)c4CN)s3)c2cc1OC (centres unmarked) [Example 397, N-[1-{5-[2-(aminomethyl)-3-chlorophenyl]thiophen-2-yl}ethyl]-6,7-dimethoxy-2-methylquinazolin-4-amine] |  | 0.209 | > 20 |
| COc1cc2nc(C)nc(NC(C)c3ccc(-c4ccc(Cl)cc4CN)s3)c2cc1OC (centres unmarked) [Example 398, N-[1-{5-[2-(aminomethyl)-4-chlorophenyl]thiophen-2-yl}ethyl]-6,7-dimethoxy-2-methylquinazolin-4-amine] |  | 0.0634 | > 20 |
| COc1cc2nc(C)nc(NC(C)c3cc(C)c(-c4ccc(F)cc4CN)s3)c2cc1OC (centres unmarked) [Example 399, N-(1-{5-[2-(aminomethyl)-4-fluorophenyl]-4-methyl-2-thienyl}ethyl)-6,7-dimethoxy-2-methylquinazolin-4-amine] |  | 0.192 | > 20 |
| COc1cc2nc(C)nc(NC(C)c3cc(C)c(-c4ccccc4CN(C)C)s3)c2cc1OC (centres unmarked) [Example 400, N-[1-(5-{2-[(dimethylamino)methyl]phenyl}-4-methyl-2-thienyl)ethyl]-6,7-dimethoxy-2-methylquinazolin-4-amine] |  | 0.0688 | > 20 |
| COc1cc2nc(C)nc(NC(C)c3cc(C)c(-c4ccccc4CN(C)CCO)s3)c2cc1OC (centres unmarked) [Example 401, 2-{[2-(5-{1-[(6,7-dimethoxy-2-methylquinazolin-4-yl)amino]ethyl}-3-methyl-2-thienyl)benzyl](methyl)amino}ethanol] |  | 0.0652 | > 20 |
| CNCc1ccccc1-c1sc(C(C)Nc2nc(C)nc3cc(OC)c(OC)cc23)cc1C (centres unmarked) [Example 402, 6,7-di methoxy-2-methyl-N-[1-(4-methyl-5-{2-[(methylamino)methyl]phenyl}thiophen-2-yl)ethyl]quinazolin-4-amine] |  | 0.0752 | > 20 |
| COc1cc2nc(C)nc(NC(C)c3ccc(-c4ccccc4C(O)CO)s3)c2cc1OC (centres unmarked) [Example 403] |  | 0.548 | > 20 |
| Cc1ccc2nc(C)nc(N[C@H](C)c3cccc(Cl)c3)c2c1 [Example 404, N-[(1R)-1-(3-chlorophenyl)ethyl]-2,6-dimethylquinazolin-4-amine] |  | 1.45 | > 20 |
| Cc1nc(N[C@H](C)c2cccc(Cl)c2)c2cc(-c3cn[nH]c3)ccc2n1 [Example 405, N-[(1R)-1-(3-chlorophenyl)ethyl]-2-methyl-6-(1H-pyrazol-4-yl)quinazolin-4-amine] |  | 0.448 | > 20 |
| Cc1nc(N[C@H](C)c2cccc(Cl)c2)c2cc(-c3cnn(C)c3)ccc2n1 [Example 406, N-[(1R)-1-(3-chlorophenyl)ethyl]-2-methyl-6-(1-methyl-1H-pyrazol-4-yl)quinazolin-4-amine] |  | 0.4 | > 20 |
| Cc1nc(N[C@H](C)c2cccc(Cl)c2)c2cc(C3CC3)ccc2n1 [Example 407, N-[(1R)-1-(3-chlorophenyl)ethyl]-6-cyclopropyl-2-methylquinazolin-4-amine] |  | 1.06 | > 20 |
| COc1cc2nc(C)nc(NC(C)c3ccc(-c4c(Cl)cccc4CNC(=O)OC(C)(C)C)s3)c2cc1OC (centres unmarked) [Example 408, tert-butyl [3-chloro-2-(5-{1-[(6,7-dimethoxy-2-methylquinazolin-4-yl)amino]ethyl}thiophen-2-yl)benzyl]carbamate] |  | 0.56 | > 20 |
| COc1cc2nc(C)nc(NC(C)c3ccc(-c4c(Cl)cccc4CN)s3)c2cc1OC (centres unmarked) [Example 409, N-[1-{5-[2-(aminomethyl)-6-chlorophenyl]thiophen-2-yl}ethyl]-6,7-dimethoxy-2-methylquinazolin-4-amine] |  | 0.028 | > 20 |
| COc1cc2nc(C)nc(NC(C)c3ccc(-c4ccnc(O)c4)s3)c2cc1OC (centres unmarked) [Example 410, 4-(5-{1-[(6,7-dimethoxy-2-methylquinazolin-4-yl)amino]ethyl}-2-thienyl)pyridin-2-ol] |  | 2.79 | > 20 |
| COc1cc2nc(C)nc(NC(C)c3ccc(-c4ccccc4C4CC(=O)N4)s3)c2cc1OC (centres unmarked) [Example 411, 4-[2-(5-{1-[(6,7-dimethoxy-2-methylquinazolin-4-yl)amino]ethyl}thiophen-2-yl)phenyl]azetidin-2-one] |  | > 20 | > 20 |
| COc1cc2nc(C)nc(NC(C)c3ccc(-c4ccc(C#N)cc4CN(C)C)s3)c2cc1OC (centres unmarked) [Example 413, 4-(5-{1-[(6,7-dimethoxy-2-methylquinazolin-4-yl)amino]ethyl}thiophen-2-yl)-3-[(dimethylamino)methyl]benzonitrile] |  | 0.262 | > 20 |
| Cc1nc(NC(C)c2ccc(Br)s2)c2cc(N3CCC(N(C)C)C3)ccc2n1 (centres unmarked) [Example 414, N-[1-(5-bromothiophen-2-yl)ethyl]-6-[3-(dimethylamino)pyrrolidin-1-yl]-2-methylquinazolin-4-amine] |  | 1.24 | > 20 |
| Cc1nc(NC(C)c2ccc(Br)s2)c2cc(N3CCN(C)CC3)ccc2n1 (centres unmarked) [Example 416, N-[1-(5-bromothiophen-2-yl)ethyl]-2-methyl-6-(4-methylpiperazin-1-yl)quinazolin-4-amine] |  | 0.697 | > 20 |
| Cc1nc(NC(C)c2ccc(-c3ccccc3CN(C)C)s2)c2cc(N3CCN(C)CC3)ccc2n1 (centres unmarked) [Example 417, N-[1-(5-{2-[(dimethylamino)methyl]phenyl}thiophen-2-yl)ethyl]-2-methyl-6-(4-methylpiperazin-1-yl)quinazolin-4-amine] |  | 0.0289 | > 20 |
